Measured values: article PMC4770093, “The role of kinetic context in apparent biased agonism at GPCRs” (Nature Communications, 2016)
Several values for one entry are separate records, joined by “and”; a condition that tells them apart may be missing. Equal values may be shown once. Read-outs that look alike come from different tables or passages of the source.

Assays:
[1] = target: SNAP-tagged human dopamine D2L (Homo sapiens, UniProt P14416); test: Tag-lite PPHT-red competition kinetic binding (HTRF); conditions: PPHT-red tracer, Tag-lite; for koff: 100 μM GppNHp, 37 °C
SNAP-tagged human dopamine D2L, sequence (P14416 whole entry): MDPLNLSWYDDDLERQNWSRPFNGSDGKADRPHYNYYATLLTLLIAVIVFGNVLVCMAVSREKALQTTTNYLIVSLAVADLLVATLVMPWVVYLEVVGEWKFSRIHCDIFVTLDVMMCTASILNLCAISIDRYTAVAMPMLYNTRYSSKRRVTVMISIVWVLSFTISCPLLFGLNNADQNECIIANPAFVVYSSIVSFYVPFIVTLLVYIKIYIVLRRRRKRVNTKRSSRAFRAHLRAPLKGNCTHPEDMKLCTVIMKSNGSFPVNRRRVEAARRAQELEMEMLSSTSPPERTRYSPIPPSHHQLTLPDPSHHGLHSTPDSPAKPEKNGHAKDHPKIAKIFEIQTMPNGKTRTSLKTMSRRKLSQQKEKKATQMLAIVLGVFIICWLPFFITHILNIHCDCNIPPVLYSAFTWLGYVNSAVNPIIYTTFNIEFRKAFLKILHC
Procedure: To terbium label the SNAP-CHO-D2L cells, cell culture medium was removed from the T175 cm^2 flasks containing confluent adherent SNAP-CHO-D2L cells. Twelve millilitres of Tag-lite labelling medium containing 100 nM of SNAP-Lumi4-Tb was added to the flask and incubated for 1 h at 37 °C under 5% CO2. Cells were then washed 2 × in 15 ml PBS (GIBCO, Invitrogen, Paisley, UK) to remove the excess of SNAP-Lumi4-Tb and detached using 5 ml of enzyme-free Hank's-based cell dissociation buffer (GIBCO, Invitrogen, Paisley, UK) and collected in a vial containing 5 ml of DMEM/Nutrient F-12 Ham, 2 mM glutamine supplemented 10% FCS. Cells were pelleted by centrifugation (5 min at 1,500 r.p.m.) and the pellets were frozen to −80 °C before preparation of membranes.
All subsequent steps described were conducted at 4 °C, to avoid receptor degradation. Twenty millilitres of wash buffer (10 mM HEPES and 10 mM EDTA pH 7.4) was added to the pellet of terbium-labelled cells (equivalent to 1 × t175 cm^2). […] The supernatant was discarded and the pellet was homogenized and centrifuged as described above in wash buffer. The final pellet was suspended in ice-cold 10 mM HEPES and 0.1 mM EDTA pH 7.4, at a concentration of 5–10 mg m^−1. Protein concentration was determined by the bicinchoninic acid assay using BSA as a standard and aliquots maintained at −80 °C until required. Before their use, the frozen membranes were thawed and the membranes suspended in the assay buffer at a membrane concentration of 0.1 mg m^−1.
GppNHp was included to remove the G protein-coupled population of receptors that can result in two binding sites in membrane preparations, because the Motulsky–Mahan model is only appropriate for ligands competing at a single site. […] Both fluorescent ligands and unlabelled compounds were diluted in the binding assay buffer.
Kinetics acquisitions at intervals of 20 s were recorded using the standard settings of the reader for HTRF measurements. […] Specific binding was determined by subtracting the nonspecific HTRF ratio from the total HTRF ratio.
To accurately determine association rate (kon) and dissociation rate (koff) values, the observed rate of association (kob) was calculated using at least four different concentrations of PPHT-red. The appropriate concentration of PPHT-red was incubated in a 384-well Optiplate with human SNAP-D2LR-CHO cell membranes (2 μg per well) in assay binding buffer at 37 °C (final assay volume, 40 μl). The degree of PPHT-red bound to the receptor was assessed at multiple time points by HTRF detection, to allow construction of association kinetic curves. The resulting data were globally fitted to the association kinetic model (equation (8)) to derive a single best-fit estimate for kon and koff as described under ‘Data analysis'.
On the same 384-well Optiplate plate, the kinetic parameters of unlabelled ligand were assessed using a competition kinetic binding assay. This approach involves the simultaneous addition of both fluorescent ligand and competitor to receptor preparation so that at t=0 all receptors are unoccupied. […] The degree of PPHT-red bound to the receptor was assessed at multiple time points by HTRF detection. Nonspecific binding was determined as the amount of HTRF signal detected in the presence of spiperone (1 μM) and was subtracted from each time point. Each time point was conducted on the same 384-well plate incubated at 37 °C with shaking (100 r.p.m.) after every cycle.
Data were globally fitted using equation (7), to simultaneously calculate kon and koff.

[2] = tested on: D2R; test: Simulation of receptor occupancy over time from kon and koff; conditions: simulation with a KD concentration of each agonist
Excerpt: We extended these studies with a Tag-lite receptor binding assay using a D2R construct with an amino-terminal SNAP tag and the fluorescently labelled agonist (±)-4′-amino-2-(N-phenethyl-N-propyl)-amino-5-hydroxytetralin (PPHT). […] The association rate of a ligand is often thought to be diffusion limited. […] Using these kinetic parameters, we performed a simulation to estimate the receptor occupancy of a KD concentration of each agonist over time (Fig. 4e).
Kinetic binding parameters of kon (a), koff (b) and t1/2 (c) were determined in a competition kinetic binding assay using a Tag-lite binding assay and the fluorescently labelled agonist PPHT as the tracer ligand (Supplementary Table 6). […] All values are expressed as mean±s.e.m. from three experiments. (e) The values of kon and koff obtained in the competition kinetic assay were used to simulate receptor occupancy over time using equation (9) and the concentration of ligand equivalent to its KD (see Supplementary Table 6).
where Ymax reflects maximum binding of a concentration of ligand and kob is determined by equation (8).

[3] = target: T1, D2LR (Homo sapiens, UniProt P14416); test: ERK1/2 phosphorylation assay (Alphascreen SureFire); format: cell-based; parameters: expressed in transfected cells; conditions: for Log(τ/KA) pERK1/2 / ΔLog(τ/KA) pERK1/2: 5 minute timepoint; for Log(τ/KA) pERK1/2: Flp-In-CHO-D2LR; for ΔLog(τ/KA) pERK1/2: dopamine as reference agonist; for alpahscreen assay to detect pERK1/2, counts: agonist 10 μM (cariprazine 1 μM), single experiments n=1 to n=4
T1 sequence (P14416 whole entry): as above
Procedure: ERK1/2 phosphorylation was measured using the Alphascreen SureFire ERK kit (PerkinElmer, Waltham, USA). Cells were seeded into 96-well plates at a density of 50,000 cells per well. After 5–7 h, cells were washed with PBS and incubated in serum-free DMEM overnight before assaying. Dose–response experiments were performed for each ligand at 37 °C in the presence of 0.1% ascorbic acid. […] The plate was shaken for 5 min at room temperature (RT) before transferring 5 μl of the lysates to a white 384-well Proxiplate (PerkinElmer, Waltham, USA). […] Plates were read using a Fusion-TM plate reader (PerkinElmer, Waltham, USA).

[4] = target: T1, D2LR; test: Gαi1 G protein activation (BRET); format: cell-based; parameters: expressed in transfected cells; conditions: 5 minute timepoint; for Log(τ/KA) Gαi1 activation: Flp-In-CHO-D2LR; for ΔLog(τ/KA) Gαi1 activation: dopamine as reference agonist
Procedure: (§1) G protein activation. Flp-In-CHO cells stably expressing the D2LR were seeded at a density of 2,000,000 cells per 10-cm dish and were transfected the following day using polyethylenimine as the transfection reagent. […] Twenty-four hours after transfection, the cells were plated into 96-well CulturPlates (PerkinElmer) and grown overnight. The cells were equilibrated in Hank's balanced salt solution at 37 °C before starting the experiment. The cells were stimulated with the agonists for the indicated timeframes when the BRET readings were captured. Coelenterazine (Promega) was added at a final concentration of 5 μM at least 3 min before measurement. […] Net BRET was determined by subtraction of the vehicle control from the agonist-induced response.

[5] = target: T1, D2LR; test: GαoB G protein activation (BRET); format: cell-based; parameters: expressed in transfected cells; conditions: for Emax / Emax Gao: relative to the maximal response of ropinirole; for Log(τ/KA) GαoB activation / ΔLog(τ/KA) GαoB activation: 5 minute timepoint; for Log(τ/KA) GαoB activation: Flp-In-CHO-D2LR; for ΔLog(τ/KA) GαoB activation: dopamine as reference agonist;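 for all read-outs here: Flp-In-CHO cells stably expressing D2LR, transiently transfected, agonist-stimulated in HBSS at 37 °C, net BRET read after coelenterazine, vehicle control subtracted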
Procedure: as §1

Q: For O=c1[nH]c2cccc(N3CCN(Cc4cccc(-c5ccccc5)c4)CC3)c2o1 [Bifeprunox, bifeprunox], which koff ([1]; read-out: koff (converted)) is on record?
A: 0.000167 s⁻¹

Q: And the Kd ([1]; read-out: pKd (affinity determined from kinetic parameters) (converted))?
A: 0.0501 nM

Q: What about the “time to maximal receptor occupancy” value [2] of the same compound?
A: > 90 min

Q: What about the “Log(τ/KA) pERK1/2” value [3] of the same compound?
A: 7.32 ± 0.10

Q: And the “ΔLog(τ/KA) pERK1/2” value [3]?
A: -1.24 ± 0.11

Q: What about the “alpahscreen assay to detect pERK1/2, counts” value (from here on “alpahscreen assay”) ([3]; time 10 mins) of the same compound?
A: 15.6263 counts and 16.6076 counts and 20.0466 counts and 28.1436 counts

Q: And the “alpahscreen assay” value ([3]; time 15 mins)?
A: 10.0482 counts and 8.477 counts and 14.6057 counts and 15.1817 counts

Q: And the “Log(τ/KA) Gαi1 activation” value [4]?
A: 8.60 ± 0.11

Q: And the “ΔLog(τ/KA) Gαi1 activation” value [4]?
A: 1.43 ± 0.14

Q: And the EC50 ([5]; 2 min)?
A: 52.5 nM

Q: What about the Emax ([5]; 2 min) of the same compound?
A: 94 ± 3.8%

Q: What about the EC50 ([5]; 5 min) of the same compound?
A: 26.9 nM

Q: What about the Emax ([5]; 5 min) of the same compound?
A: 80%

Q: And the “Log(τ/KA) GαoB activation” value [5]?
A: 7.50 ± 0.10

Q: What about the “ΔLog(τ/KA) GαoB activation” value [5] of the same compound?
A: 0.26 ± 0.13

Q: And the EC50 ([5]; 10 min)?
A: 12.9 nM

Q: What about the Emax ([5]; 10 min) of the same compound?
A: 77%

Q: And the EC50 ([5]; 15 min)?
A: 7.59 nM

Q: What about the Emax ([5]; 15 min) of the same compound?
A: 79%

Q: What about the EC50 ([5]; 30 min) of the same compound?
A: 4.07 nM

Q: And the Emax ([5]; 30 min)?
A: 87 ± 2.5%

Q: And the EC50 ([5]; 45 min)?
A: 3.02 nM

Q: What about the Emax ([5]; 45 min) of the same compound?
A: 88 ± 2.4%

Q: And the EC50 ([5]; 60 min)?
A: 3.24 nM

Q: What about the EC50 ([5]; 75 min) of the same compound?
A: 2.19 nM

Q: What about the EC50 ([5]; 90 min) of the same compound?
A: 2.14 nM

Q: What about the Emax ([5]; 90 min) of the same compound?
A: 90 ± 3.2%

Q: CN1CCN(c2cccc3[nH]c(=O)oc23)CC1 [Pardoprunox, pardoprunox] was tested. Which “pKd (affinity determined from kinetic parameters)” value [1] did it give?
A: 7.75

Q: And the koff [1]?
A: 0.038 ± 0.00933 s⁻¹

Q: What about the “time to maximal receptor occupancy” value [2] of the same compound?
A: ≤ 1 min

Q: What about the “Log(τ/KA) pERK1/2” value [3] of the same compound?
A: 9.06 ± 0.08

Q: And the “ΔLog(τ/KA) pERK1/2” value [3]?
A: 0.50 ± 0.10

Q: What about the “alpahscreen assay” value ([3]; time 7.5 mins) of the same compound?
A: 13.2699 counts and 16.7995 counts and 15.0808 counts and 9.987 counts

Q: What about the “alpahscreen assay” value ([3]; time 10 mins) of the same compound?
A: 12.5176 counts and 12.8139 counts and 9.935 counts and 7.3291 counts

Q: What about the “alpahscreen assay” value ([3]; time 20 mins) of the same compound?
A: 2.97 counts and 3.103 counts and 2.735 counts and 1.953 counts

Q: What about the “Log(τ/KA) Gαi1 activation” value [4] of the same compound?
A: 8.10 ± 0.13

Q: And the “ΔLog(τ/KA) Gαi1 activation” value [4]?
A: 0.93 ± 0.16

Q: And the “pEC50 Gao” value ([5]; 2 min)?
A: 7.78

Q: And the “Emax Gao” value ([5]; 2 min)?
A: 82 ± 4.5

Q: And the “pEC50 Gao” value ([5]; 5 min)?
A: 7.77

Q: And the “Emax Gao” value ([5]; 5 min)?
A: 79 ± 4.3

Q: And the “Log(τ/KA) GαoB activation” value [5]?
A: 7.70 ± 0.10

Q: What about the “ΔLog(τ/KA) GαoB activation” value [5] of the same compound?
A: 0.45 ± 0.13

Q: And the “pEC50 Gao” value ([5]; 10 min)?
A: 8.00

Q: What about the “Emax Gao” value ([5]; 10 min) of the same compound?
A: 76 ± 3.2

Q: And the “pEC50 Gao” value ([5]; 15 min)?
A: 8.21

Q: What about the “Emax Gao” value ([5]; 15 min) of the same compound?
A: 81 ± 2.8

Q: And the “pEC50 Gao” value ([5]; 30 min)?
A: 8.70

Q: And the “Emax Gao” value ([5]; 30 min)?
A: 84 ± 3.1

Q: And the “pEC50 Gao” value ([5]; 45 min)?
A: 8.71

Q: And the “Emax Gao” value ([5]; 45 min)?
A: 85 ± 3.1

Q: What about the “pEC50 Gao” value ([5]; 60 min) of the same compound?
A: 8.64

Q: And the “Emax Gao” value ([5]; 60 min)?
A: 86 ± 2.7

Q: What about the “pEC50 Gao” value ([5]; 75 min) of the same compound?
A: 8.34

Q: And the “Emax Gao” value ([5]; 75 min)?
A: 80 ± 4.9

Q: What about the “pEC50 Gao” value ([5]; 90 min) of the same compound?
A: 8.58

Q: What about the “Emax Gao” value ([5]; 90 min) of the same compound?
A: 87 ± 2.5

Q: And the “change in potency over time in the GαoB activation assay” value ([5]; time points from 2 to 90 min)?
A: sixfold
